Reference: US7208303B2, “Bacterial nitric oxide synthases and uses thereof” (Cornell Research Foundation, Inc., priority 2003, dated 2007)

Key:
S. turgidiscabies = test: Bacterial growth of S. turgidiscabies cultures (dry weight of mycelia); format: cell-based, Streptomyces turgidiscabies; details: FIG. 4C
Protocol: (§1) Sonicated cell lysates from 3 mL cultures were run on 12% SDS-PAGE gels after 2.5 hr induction with 0.1 mM IPTG. […] The NOS intermediate N^ω-hydroxy-L-arginine (2 mM) and hydrogen peroxide (4 mM) were reacted with 20 μL of cell lysates shown in FIG. 4A and assayed for nitrite with the Griess reagents after 15 min.
(§2) Streptomyces turgidiscabies cultures were grown in oat bran broth or oat meal broth (Healy et al., Mol. Micro. 38:794–804 (2000); and Goyer et al., Phytopathology 88:442–445 (1998), which are hereby incorporated by reference in their entirety) inoculated with spores. After shaking at 150 rpm and 25° C. for 5–9 days the cultures were filtered and dry weight of the mycelia was measured. Thaxtomin was extracted from the filtrate with ethyl acetate, dried, redissolved in methanol, and quantified using HPLC (column: 5 μm C18; 250×4.6 mm; mobile phase: MeCN: H20:TFA (40:60:0.1)). In experiments investigating the suppression of thaxtomin production in the presence of L-NAME, this NOS inhibitor was dissolved in water, filter-sterilized, and added at the time of inoculation.

[1] = tested on: thaxtomin A production by S. turgidiscabies; test: Thaxtomin A production by S. turgidiscabies cultures in presence of NOS inhibitors (HPLC); format: cell-based, Streptomyces turgidiscabies; details: FIG. 4C, n=6
Protocol: as §1, §2
For stNOS to be responsible for thaxtomin nitration, stNOS should have NO synthase activity. Further, this activity and thaxtomin production should be arginine dependent. As predicted, overexpressed stNOS in E. coli produced nitrite from N-hydroxy-L-arginine in a standard NOS assay (FIGS. 4A–4B). N-hydroxy-L-arginine is an intermediate unique to the NOS catalytic reaction and nitrite represents the end product of NO reacting in oxygenated solution. NO synthase activity of the recombinant stNOS was inhibited by the selective NOS inhibitor nitro-L-arginine (FIG. 4B); nitro-L-arginine is the active form of Nitro-L-arginine methyl ester (NAME). NOS inhibitors were also evaluated for their effect on thaxtomin A production by S. turgidiscabies. […]

O=[N+]([O-])c1cccc2cn[nH]c12 [7-IN, 7-nitroindazole]
bacterial growth (S. turgidiscabies; 1.2 μM): without affecting bacterial growth | toxin production ([1]; 1.2 μM): inhibit toxin product

N=C(N)NN [AG, aminoguanidine]
bacterial growth (S. turgidiscabies; 270 μM): without affecting bacterial growth | toxin production ([1]; 270 μM): inhibit toxin product

CNC(=N)NCCC[C@H](N)C(=O)O [NMMA, NG-monomethyl-L-arginine]
bacterial growth (S. turgidiscabies; 510 μM): without affecting bacterial growth | toxin production ([1]; 510 μM): inhibit toxin product
